Test results published in patent publication US8962628B2, “Herbicidal 5H-quinoxaline-6-one derivatives detailed description” (Syngenta Limited, priority 2010, dated 2015).

What was measured:
Format in all cases: in vivo
Amaranthus retroflexus [1] = experiment: Herbicidal action post-emergence (Example B2); conditions: post-emergence spray with adjuvant X-77, rate 500 g/ha, evaluated after 15 days; 10=total damage to plant, 0=no damage to plant
Method: (§1) Seeds of crop and representative weed species were sown in standard soil in pots. After cultivation for 14 days under controlled conditions in a glasshouse (at 22/16° C., day/night; 16 hours light; 65% humidity), the plants were sprayed. The spray solution was prepared by dissolving the technical active ingredient in acetone containing 10.56 wt % Emulsogen EL, 42.22 wt % N-methylpyrrolidone and 2.22 wt % DPG-monoethyl ether to give a 5% stock solution. This was then diluted with water containing 0.2% (v/v) of the adjuvant X-77 to give the desired treatment concentration.
(§2) The test plants were then grown on under controlled conditions in a glasshouse (at 22/16° C., day/night; 16 hours light; 65% humidity) and watered twice daily. After 15 days the test was evaluated (10=total damage to plant; 0=no damage to plant).

Setaria faberi [2] = experiment: Herbicidal action post-emergence (Example B2); conditions: post-emergence spray with adjuvant X-77, rate 500 g/ha, evaluated after 15 days; 10=total damage to plant, 0=no damage to plant
Method: as §1, §2

Echinochloa crus-galli [3] = experiment: Herbicidal action post-emergence (Example B2); conditions: post-emergence spray with adjuvant X-77, rate 500 g/ha, evaluated after 15 days; 10=total damage to plant, 0=no damage to plant
Method: as §1, §2

Ipomea hederaceae [4] = experiment: Herbicidal action post-emergence (Example B2); conditions: post-emergence spray with adjuvant X-77, rate 500 g/ha, evaluated after 15 days; 10=total damage to plant, 0=no damage to plant
Method: as §1, §2

Amaranthus retroflexus [5] = experiment: Herbicidal action post-emergence (Example B1); conditions: post-emergence spray, rate 1000 g/ha, evaluated after 13 days; 10=total damage to plant, 0=no damage to plant
Method: (§3) Seeds of a variety of test species were sown in standard soil in pots. After 8 days cultivation (post-emergence) under controlled conditions in a glasshouse (at 24/16° C., day/night; 14 hours light; 65% humidity), the plants were sprayed with an aqueous spray solution derived from the formulation of the technical active ingredient in acetone/water (50:50) solution containing 0.5% Tween 20 (polyoxyethelyene sorbitan monolaurate, CAS RN 9005-64-5). The test plants were then grown under controlled conditions in a glasshouse (at 24/16° C., day/night; 14 hours light; 65% humidity) and watered twice daily. After 13 days, the test was evaluated (10=total damage to plant; 0=no damage to plant).

Setaria faberi [6] = experiment: Herbicidal action post-emergence (Example B1); conditions: post-emergence spray, rate 1000 g/ha, evaluated after 13 days; 10=total damage to plant, 0=no damage to plant
Method: as §3

Solanum nigrum = experiment: Herbicidal action post-emergence (Example B1); conditions: post-emergence spray, rate 1000 g/ha, evaluated after 13 days; 10=total damage to plant, 0=no damage to plant
Method: as §3

Echinochloa crus-galli [7] = experiment: Herbicidal action post-emergence (Example B1); conditions: post-emergence spray, rate 1000 g/ha, evaluated after 13 days; 10=total damage to plant, 0=no damage to plant
Method: as §3

Ipomea hederaceae [8] = experiment: Herbicidal action post-emergence (Example B1); conditions: post-emergence spray, rate 1000 g/ha, evaluated after 13 days; 10=total damage to plant, 0=no damage to plant
Method: as §3

Row | SMILES | AMARE damage to plant (score 0-10) (Amaranthus retroflexus [1]) | SETFA damage to plant (score 0-10) (Setaria faberi [2]) | ECHCG damage to plant (score 0-10) (Echinochloa crus-galli [3]) | IPOHE damage to plant (score 0-10) (Ipomea hederaceae [4]) | AMARE damage to plant (score 0-10) (Amaranthus retroflexus [5]) | SETFA damage to plant (score 0-10) (Setaria faberi [6]) | SOLNI damage to plant (score 0-10) (Solanum nigrum) | ECHCG damage to plant (score 0-10) (Echinochloa crus-galli [7]) | IPOHE damage to plant (score 0-10) (Ipomea hederaceae [8])
1 | CC1(C)C(=O)C(c2ccccc2C(F)(F)F)C(=O)c2nccnc21 (stereo not shown) [Compound E1, 8,8-dimethyl-6-(2-trifluoromethyl-phenyl)-8H-quinoxaline-5,7-dione] | 10 | 7 | 3 | 8 | 10 | 9 | 10 | 9 | 9
2 | CC(C)C(=O)OC1=C(c2ccccc2C(F)(F)F)C(=O)C(C)(C)c2nccnc21 [Compound F1, isobutyric acid 8,8-dimethyl-7-oxo-6-(2-trifluoromethyl-phenyl)-7,8-dihydro-quinoxalin-5-yl ester] | 10 | 8 | 8 | 8 |  |  |  |  | 
